# Key:
# [1] = system: élément de réponse à la dioxine; test: CAT reporter gene under control of a dioxin response element (DRE), stably transfected T-47D cells; assay type: cell-based; details: figure 1A, 10^-6 M de Resvératrol
# Description: Les inventeurs ont entrepris d'identifier de nouveaux ligands du récepteur AhR. Pour ce faire, ils ont transfecté de façon stable une lignée de cellules de cancer du sein, T-47D, avec un gène rapporteur (la trans-acétylase du chloramphénicol, ou CAT) placé sous le contrôle d'un élément de réponse à la dioxine ou DRE. La lignée T-47D est connue pour contenir un taux élevé de récepteur AhR (170 femtomoles/mg protéines).
# On transfecte de manière stable la lignée T-47D de cellules de cancer du sein avec un gène rapporteur, la trans-acétylase du chloramphénicol, CAT en abrégé, placé sous le contrôle d'un élément de réponse à la dioxine.
# On constate que l'inhibition observée est dose-dépendante.
# CYP1A1 = test: Induction of Cyp1A1 protein by dioxin in T-47D cells (Western blot); assay type: cell-based; details: for effets agonistes / antagonistes: 10^-5M
# Protocol: Les cellules sont collectées et lavées dans le PBS, puis lysées par fusion-congélation répétée en conditions isotoniques. 75 µg de protéines sont analysées par électrophorèse en gel de polyacrylamide en conditions dénaturantes. Le gel est transféré sur une membrane de nylon. La membrane est saturée avec 5 % de lait écrémé et incubée avec un anticorps polyclonal de lapin (Daiichi Pure Chemicals Co, Japan) contre Cyp1A1. Les immuncomplexes sont détectés par chimioluminescence avec le kit Renaissance (DuPont). La figure 2 correspond à la photo du Western blot. La flèche montre la bande spécifique de Cyp1A1, les astérisques signalent des bandes non-spécifiques.
# récepteur AhR = molecular target: T1, récepteur AhR (Oryctolagus cuniculus, UniProt O02747); test: Competition with tritiated dioxin for binding to the AhR receptor in rabbit liver cytosol; parameters: species or system lapin; details: for Kd: displacement of labelled dioxin, read-out: Kd apparent (converted)
# T1 construct: On a utilisé un cytosol de foie de lapin pour ces études de compétition; from tissue; host or cells: rabbit liver cytosol
# T1 sequence (O02747 1-847): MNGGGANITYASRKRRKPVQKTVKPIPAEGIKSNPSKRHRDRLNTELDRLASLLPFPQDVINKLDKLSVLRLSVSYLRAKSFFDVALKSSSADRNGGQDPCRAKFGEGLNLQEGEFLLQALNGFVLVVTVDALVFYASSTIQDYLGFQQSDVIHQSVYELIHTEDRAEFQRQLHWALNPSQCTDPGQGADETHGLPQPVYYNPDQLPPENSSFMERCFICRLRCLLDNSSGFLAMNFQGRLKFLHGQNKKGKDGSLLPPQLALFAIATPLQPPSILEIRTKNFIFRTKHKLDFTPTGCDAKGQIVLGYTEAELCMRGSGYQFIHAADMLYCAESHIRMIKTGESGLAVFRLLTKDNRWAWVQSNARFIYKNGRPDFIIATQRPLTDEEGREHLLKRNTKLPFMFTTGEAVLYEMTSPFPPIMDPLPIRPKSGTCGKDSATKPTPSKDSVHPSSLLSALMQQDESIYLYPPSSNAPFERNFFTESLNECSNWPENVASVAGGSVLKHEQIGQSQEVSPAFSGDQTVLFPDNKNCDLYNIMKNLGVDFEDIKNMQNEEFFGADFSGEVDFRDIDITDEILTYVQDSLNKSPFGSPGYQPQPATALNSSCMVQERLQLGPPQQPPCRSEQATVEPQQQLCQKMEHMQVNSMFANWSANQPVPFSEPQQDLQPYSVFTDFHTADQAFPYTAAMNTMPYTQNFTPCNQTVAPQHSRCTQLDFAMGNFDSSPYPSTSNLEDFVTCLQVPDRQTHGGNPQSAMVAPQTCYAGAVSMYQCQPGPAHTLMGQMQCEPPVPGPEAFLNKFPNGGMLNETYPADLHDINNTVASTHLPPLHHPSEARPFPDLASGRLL
# [2] = system: élément de réponse à l'estradiol (ERE) du gène de la vitellogénine; test: Transient CAT reporter under estradiol response element (ERE) in T-47D cells; assay type: cell-based
# Description: (§1) On a transfecté de façon transitoire les cellules T-47D avec différentes constructions CAT sous contrôle de l'élément de réponse à l'estradiol (ERE) du gène de la vitellogénine ou celui, plus faible, du gène du récepteur de la progestérone, ainsi que des éléments de réponse à la progestérone (PRE) et aux androgènes (ARE) du virus murin MMTV et d'un élément de réponse à la vitamine D (VDRE) synthétique.
# [3] = system: éléments de réponse à la progestérone (PRE); test: Transient CAT reporter under progesterone response element (PRE) in T-47D cells; assay type: cell-based
# Description: as §1
# [4] = system: éléments de réponse aux androgènes (ARE); test: Transient CAT reporter under androgen response element (ARE) in T-47D cells; assay type: cell-based
# Description: as §1
# [5] = system: élément de réponse à la vitamine D (VDRE); test: Transient CAT reporter under vitamin D response element (VDRE) in T-47D cells; assay type: cell-based
# Description: as §1
# [6] = system: NAD(P)H quinone réductase; test: NAD(P)H quinone reductase (NQOR) activity in T-47D cells; assay type: cell-based; details: 10^-6 M, dioxine 10^-9 M, 72 h
# Description: L'activité NQOR correspondante exprimée en nanomoles de cytochrome c réduit, par mg de protéines, par min, est donnée sur la figure 5.
# [7] = system: promoteur de la séquence répétée (LTR) de VIH-1; test: HIV-1 LTR promoter CAT construct (-452/+77) transfected in T-47D cells; assay type: cell-based; details: dioxine 10^-9 M
# Description: On a transfecté les cellules T-47D avec une construction CAT contenant ce promoteur (-452/+77).
# cyp 1A1 = test: In vivo induction of cyp 1A1 in rats by BaP/DMBA (immunoblot of lung and kidney); parameters: species or system rats Sprague-Dawley; details: equal concentration of substances (1 mg/kg BaP/DMBA plus 1 mg/kg resvératrol)
# Protocol: Des rats Sprague-Dawley femelle ont été traités par une combinaison de Benzol [a]pyrène et de DMBA (diméthylbenzanthracène), deux ligands AhR présents dans la fumée de cigarette. Des expériences préliminaires ont montré que cyp 1A1 était induit à partir de 1 mg/kg des deux ligands administrés ensemble. […] Les animaux ont été sacrifiés et les organes prélevés. Des extraits cellulaires totaux ont été préparés et analysés par immunoblot pour détecter l'expression de cyp 1A1 dans ces tissus.
Structure (SMILES),effet sur l'induction de CAT par TCDD [1],effets agonistes / antagonistes (CYP1A1),"inhibition at 1 µM (CYP1A1; Homo sapiens, T47D, 48 h, read-out: inhibition de l'induction de la protéine CYP1A1) [%]",excès nécessaire pour observer l'inhibition ex vivo (CYP1A1; ex vivo) [fois],"effet inhibiteur compared with α-naphthoflavone (CYP1A1; induction of CYP1A1 by TCDD, T-47D)",affinité compared with indole-3-carbinol (récepteur AhR),"effet estrogénique sur l'ERE, fraction of the effect of estradiol ([2]; T-47D, CAT)","effet estrogénique, fraction of the effect of 10^-10 M estradiol ([2]; from 10^-5 M Resvératrol)",effet sur PRE [3],effet sur ARE [4],effet sur VDRE [5],répression de l'induction indirecte des enzymes de phase II (NAD(P)H quinone réductase) provoquée par la dioxine [6],suppression de l'induction du promoteur de VIH par la dioxine ([7]; Resvératrol 10^-6 M),suppression de l'induction de cyp 1A1 in vivo (cyp 1A1),Kd (récepteur AhR) [nM],"fold induction at 0.001 µM ([7]; Homo sapiens, T47D, T-47D, read-out: induction du promoteur de VIH (facteur))"
"Oc1ccc(/C=C/c2cc(O)cc(O)c2)cc1 [Resvératrol, trans-resvératrol]",effet inhibiteur,pur antagoniste,~60,5000,légérement inférieur,affinité plus forte,1/500.000,1/5,aucun effet,aucun effet,aucun effet,ne répriment l'induction indirecte,totalement supprimée,totalement supprimée,,
"Clc1cc2c(cc1Cl)Oc1cc(Cl)c(Cl)cc1O2 [TCDD, 2,3,7,8-tétrachlorodibenzo (p)dioxine, reference compound]",,,,,,,,,,,,,,,3,3
"O=c1cc(-c2ccccc2)oc2c1ccc1ccccc12 [α-NF, alpha-7,8-benzoflavone, reference compound]",,effets agonistes autant qu'antagonistes,,,,,,,,,,ne répriment l'induction indirecte,,,3,

# — patent EP1075256B1, “ARYLHYDROCARBON RECEPTOR LIGAND ANTAGONISTS” (priority 1998, dated 1999)
